Experimental findings from PubChem BioAssay AID1918996 (Molecular Pharmacology Branch, DTP, NCI, 2023) are described below.

“And” between values parts separate entries of the source, which are not always exact repeats. Equal values may be shown once.

For the test, the system named is 349418-098-R-PDC complex spheroid growth. In words: Anticancer human tumor 349418-098-R-PDC patient-derived lung adenocarcinoma cell line growth inhibition [AhR]. To be noted: for viability, T/C: stronger effect = lower value. Put shortly:
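Agents were dosed in half-log steps down from roughly clinical Cmax, or from 10 microM where Cmax was unknown, alone and with AhR antagonists. Read-out: percent test/control growth of tumor spheroids containing HUVEC and MSC stromal cells.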

[1] abbreviates: curve of first compound, second compound 0.1 µM.
[2] abbreviates: curve of first compound, second compound 0.316 µM.
Where [3] appears, read: curve of first compound, second compound 1 µM.
[4] abbreviates: curve of first compound, second compound 3.16 µM.
Where [5] appears, read: curve of first compound, second compound 10 µM.
Where [6] appears, read: second compound 0.1 µM, first compound 0.000949 µM.
Setting [7] is: second compound 0.1 µM, first compound 0.003 µM.
Setting [8] is: second compound 0.1 µM, first compound 0.00949 µM.
Where [9] appears, read: second compound 0.1 µM, first compound 0.03 µM.
The mark [10] stands for this setting: second compound 0.1 µM, first compound 0.0949 µM.
Setting [11] is: second compound 0.1 µM, first compound 0.3 µM.
[12] abbreviates: second compound 0.316 µM, first compound 0.000949 µM.
Setting [13] is: second compound 0.316 µM, first compound 0.003 µM.
[14] abbreviates: second compound 0.316 µM, first compound 0.00949 µM.
Setting [15] is: second compound 0.316 µM, first compound 0.03 µM.
[16] abbreviates: second compound 0.316 µM, first compound 0.0949 µM.
The mark [17] stands for this setting: second compound 0.316 µM, first compound 0.3 µM.
Setting [18] is: second compound 1 µM, first compound 0.000949 µM.
Where [19] appears, read: second compound 1 µM, first compound 0.003 µM.
[20] abbreviates: second compound 1 µM, first compound 0.00949 µM.
Where [21] appears, read: second compound 1 µM, first compound 0.03 µM.
The mark [22] stands for this setting: second compound 1 µM, first compound 0.0949 µM.
Where [23] appears, read: second compound 1 µM, first compound 0.3 µM.
The mark [24] stands for this setting: second compound 3.16 µM, first compound 0.000949 µM.
The mark [25] stands for this setting: second compound 3.16 µM, first compound 0.003 µM.
Where [26] appears, read: second compound 3.16 µM, first compound 0.00949 µM.
Setting [27] is: second compound 3.16 µM, first compound 0.03 µM.
Setting [28] is: second compound 3.16 µM, first compound 0.0949 µM.
[29] abbreviates: second compound 3.16 µM, first compound 0.3 µM.
[30] abbreviates: second compound 10 µM, first compound 0.000949 µM.
Where [31] appears, read: second compound 10 µM, first compound 0.003 µM.
The mark [32] stands for this setting: second compound 10 µM, first compound 0.00949 µM.
Setting [33] is: second compound 10 µM, first compound 0.03 µM.
[34] abbreviates: second compound 10 µM, first compound 0.0949 µM.
The mark [35] stands for this setting: second compound 10 µM, first compound 0.3 µM.
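Note: spheroids exposed to agents for seven days before luminescence viability read.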
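Throughout, for viability, T/C: spheroids also contain HUVEC endothelial cells and human MSC stroma.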

Regarding `CC1COCCN1c1cc(-c2ccnn2C)c2ccnc(-c3ccn[nH]3)c2n1` (stereo not drawn) + CC(CO)NC(=O)c1cc(-c2ccc(Cl)cc2)nn(-c2cnn(C)c2)c1=O, the half-maximal inhibitory concentration (IC50) (usually the point on the concentration scale where inhibition reaches its midpoint) reads like this: under setting [1], 79.1 nM; under setting [2], 68.8 nM; under setting [3], 82.3 nM; under setting [4], 67.4 nM; under setting [5], 52.9 nM. Further, the viability, T/C (as a rule, the ratio of treated to control) (second compound 0.1 µM, first compound 0.00316 µM) was 90.3%; the viability, T/C (second compound 0.1 µM, first compound 0.01 µM) is 99.2%; the viability, T/C (second compound 0.1 µM, first compound 0.0316 µM) was 81.9%; the viability, T/C (second compound 0.1 µM, first compound 0.1 µM) was 41.9%; the viability, T/C (second compound 0.1 µM, first compound 0.316 µM) was 14.2%; the viability, T/C (second compound 0.1 µM, first compound 1 µM) is 10.3%. For the same molecule, the viability, T/C is 87.4% (second compound 0.316 µM, first compound 0.00316 µM); 92.3% (second compound 0.316 µM, first compound 0.01 µM); 89.1% (second compound 0.316 µM, first compound 0.0316 µM); 31.2% (second compound 0.316 µM, first compound 0.1 µM); 15.8% (second compound 0.316 µM, first compound 0.316 µM); 9.1% (second compound 0.316 µM, first compound 1 µM). In addition, the viability, T/C (second compound 1 µM, first compound 0.00316 µM) is 112%; the viability, T/C (second compound 1 µM, first compound 0.01 µM) was 128%; the viability, T/C (second compound 1 µM, first compound 0.0316 µM) was 91.6%; the viability, T/C (second compound 1 µM, first compound 0.1 µM) was 42.2%; the viability, T/C (second compound 1 µM, first compound 0.316 µM) was 16.6%; the viability, T/C (second compound 1 µM, first compound 1 µM) is 10.9%. Further, the viability, T/C (second compound 3.16 µM, first compound 0.00316 µM) was 67.7%; the viability, T/C (second compound 3.16 µM, first compound 0.01 µM) is 96.1%; the viability, T/C (second compound 3.16 µM, first compound 0.0316 µM) was 85.3%; the viability, T/C (second compound 3.16 µM, first compound 0.1 µM) is 32.8%; the viability, T/C (second compound 3.16 µM, first compound 0.316 µM) was 15.8%; the viability, T/C (second compound 3.16 µM, first compound 1 µM) was 12%. In addition, the viability, T/C by setting is: (second compound 10 µM, first compound 0.00316 µM) 62.8%; (second compound 10 µM, first compound 0.01 µM) 94%; (second compound 10 µM, first compound 0.0316 µM) 69.1%; (second compound 10 µM, first compound 0.1 µM) 25.2%; (second compound 10 µM, first compound 0.316 µM) 14.2%; (second compound 10 µM, first compound 1 µM) 10.1%.

With `CC(C)CC(NC(=O)C(Cc1ccccc1)NC(=O)c1cnccn1)B(O)O` (stereo not drawn) + Cc1ccccc1N=Nc1ccc(NC(=O)c2ccnn2C)c(C)c1, the concentration for half-maximal inhibition (IC50) under setting [1] is below 0.949 nM; the IC50 under setting [2] is below 0.949 nM; the IC50 under setting [3] came out at 1.18 nM; the half-inhibitory concentration (IC50) under setting [4] stood at 1.06 nM; the 50% inhibitory concentration (IC50) under setting [5] is below 0.949 nM. In addition, the viability, T/C runs as follows: under setting [6], 46.8%; under setting [7], 11.1%; under setting [8], 3.13%; under setting [9], 1.55%; under setting [10], 1.77%; under setting [11], 0.98%. Also, the viability, T/C runs as follows: under setting [12], 48.2%; under setting [13], 11.7%; under setting [14], 2.73%; under setting [15], 1.61%; under setting [16], 1.03%; under setting [17], 1.37%. Besides, the viability, T/C by setting is: under setting [18], 58.5%; under setting [19], 13.4%; under setting [20], 2.69%; under setting [21], 1.87%; under setting [22], 1.39%; under setting [23], 1.15%. Besides, the viability, T/C is 53.7% under setting [24]; 14% under setting [25]; 2.77% under setting [26]; 1.76% under setting [27]; 1.72% under setting [28]; 1.32% under setting [29]. The viability, T/C was 41.6% under setting [30]; 14.5% under setting [31]; 2.75% under setting [32]; 1.8% under setting [33]; 1.43% under setting [34]; 1.45% under setting [35].

Regarding `NS(=O)(=O)OCC1CC(n2ccc3c(NC4CCc5ccccc54)ncnc32)CC1O` (stereo not drawn), the viability, T/C (compound 0.0316 µM) was 94% and 96.6% and 72.3%; the viability, T/C (compound 0.1 µM) was 96.1% and 79.4% and 73.2%; the viability, T/C (compound 0.316 µM) was 72.6% and 35.4% and 34.8%; the viability, T/C (compound 1 µM) was 27.8% and 25.5% and 21.3%; the viability, T/C (compound 3.16 µM) is 15.2% and 12.5% and 14%; the viability, T/C (compound 10 µM) was 6.38% and 8.08% and 8.54%. In addition, the IC50 (curve of compound) is 572 nM and 231 nM and 199 nM.

With `CCc1c2c(nc3ccc(O)cc13)-c1cc3c(c(=O)n1C2)COC(=O)[C@]3(O)CC` + Cc1ccccc1N=Nc1ccc(NC(=O)c2ccnn2C)c(C)c1, the IC50 under setting [1] came out at 3.8 nM; the IC50 under setting [2] was below 0.949 nM; the half-maximal inhibitory concentration (IC50) under setting [3] was below 0.949 nM; the IC50 under setting [4] was below 0.949 nM; the 50% inhibitory concentration (IC50) under setting [5] was below 0.949 nM. In addition, the viability, T/C reads like this: under setting [6], 75.5%; under setting [7], 57.2%; under setting [8], 22.3%; under setting [9], 12.3%; under setting [10], 8.18%; under setting [11], 7.18%. Also, the viability, T/C is, setting by setting: under setting [12], 44.2%; under setting [13], 32.8%; under setting [14], 21%; under setting [15], 9.78%; under setting [16], 7.84%; under setting [17], 5.78%. The viability, T/C reads like this: under setting [18], 29.9%; under setting [19], 27.3%; under setting [20], 19.7%; under setting [21], 10.3%; under setting [22], 7.94%; under setting [23], 6.46%. The viability, T/C reads like this: under setting [24], 34.6%; under setting [25], 33.5%; under setting [26], 15.8%; under setting [27], 10%; under setting [28], 7.13%; under setting [29], 6.47%. Moreover, the viability, T/C reads like this: under setting [30], 37.7%; under setting [31], 27.6%; under setting [32], 15.2%; under setting [33], 10.4%; under setting [34], 7.83%; under setting [35], 6.4%.

For the molecule `CC[C@@]1(O)C(=O)OCc2c1cc1n(c2=O)Cc2cc3c(CN(C)C)c(O)ccc3nc2-1`, the viability, T/C by setting is: (compound 0.000316 µM) 94.4% and 113% and 119%; (compound 0.001 µM) 97.3% and 89.4% and 89.3%; (compound 0.00316 µM) 93.6% and 63.5% and 81.3%; (compound 0.01 µM) 84.2% and 87.1% and 64%; (compound 0.0316 µM) 43.4% and 42.2% and 21.3%; (compound 0.1 µM) 15.3% and 21.5% and 13.5%. In addition, the 50% inhibitory concentration (IC50) (curve of compound) is 26.2 nM and 25.8 nM and 12.9 nM.

For `COc1cccc2c1C(=O)c1c(O)c3c(c(O)c1C2=O)CC(O)(C(=O)CO)CC3OC1CC(N)C(O)C(C)O1` (stereo not drawn), the viability, T/C is, setting by setting: (compound 0.0316 µM) 12.1% and 24.6% and 20.9%; (compound 0.1 µM) 7.69% and 19% and 13.3%; (compound 0.316 µM) 1.29% and 5.3% and 4.49%; (compound 1 µM) 0.27% and 0.62% and 0.79%; (compound 3.16 µM) 2.73% and 2.97% and 3.14%; (compound 10 µM) 4.37% and 6.2% and 5.59%. Further, for the setting “curve of compound”, the IC50 was below 31.6 nM.

In the case of `CC1COCCN1c1cc(C2(S(C)(=N)=O)CC2)nc(-c2ccnc3[nH]ccc23)n1` (stereo not drawn), the viability, T/C is, setting by setting: (compound 0.0316 µM) 101% and 113% and 96.1%; (compound 0.1 µM) 102% and 81.9% and 78.6%; (compound 0.316 µM) 102% and 125% and 74.4%; (compound 1 µM) 100% and 62.9% and 65.1%; (compound 3.16 µM) 73% and 40.4% and 28.4%; (compound 10 µM) 16.1% and 13.5% and 12.1%. In addition, the IC50 (curve of compound) is 5040 nM and 1510 nM and 1460 nM.
